Values belong to the compound of their own block, whether it stands above or below them.
How the values were obtained:
ACTH = assay: Systemic Effects--ACTH Suppression in Adrenalectomised Rats; type: in vivo, Male CD rats; details: single intra-tracheal, 4 h
Procedure: (ii) Systemic Effects--ACTH Suppression in Adrenalectomised Rats
Male CD rats (90-120 g) were adrenalectomised under Isoflurane anaesthesia and drinking water was supplemented with 0.9% saline. Four days later the animals receive a single intra-tracheal dose (under Isoflurane anaesthesia) of compound suspended in saline (containing 0.2% Tween-80, 0.2 ml) at 10am. After 4 h animals are sacrificed by administration of Euthetal and blood samples are taken by intra-cardiac puncture and collected into heparinised tubes. The samples are centrifuged (20 minutes at 1000 RPM at 4 deg C.), the plasma is collected and assayed by Radioimmunoassay (RIA) for Adrenocorticotrophic hormone (ACTH) using a DPC double antibody RIA kit. Intact and vehicle control groups were included in each experiment in order to account for diurnal variation in ACTH and effects of vehicle. Results are calculated with respect to the RIA standard curve and expressed as ACTH pg/ml plasma, allowing percentage reduction in ACTH to be calculated.

Rat Ear Oedema = assay: Anti-Inflammatory Activity--Inhibition of Rat Ear Oedema (croton oil); type: in vivo; details: dose 100 μg, inner surface of ears, male rats, 6 hours
Procedure: (i) Anti-Inflammatory Activity--Inhibition of Rat Ear Oedema
The test compounds are dissolved in acetone and 40ul containing 5% croton oil is applied to the inner surface of each of the ears of 60-80 g male rats. Animals are killed 6 hours later and the ears are removed. Standard size (0.5 cm diameter) discs are punched out and the discs weighed. Mean weight of the ear discs is calculated and from this percentage inhibition of ear inflammation in relation to croton oil alone treated ears are calculated.

Compound: CC1(C)O[C@@H]2C[C@H]3[C@@H]4C[C@H](F)C5=CC(=O)C=C[C@]5(C)[C@@]4(F)[C@@H](O)C[C@]3(C)[C@]2(SC2CCOC2=O)O1 (single isomer, unassigned) [Example 2 Isomer A, 6α,9α-Difluoro-11β-hydroxy-16α,17α-isopropylidenedioxy-17β-(2-oxo-tetrahydro-furan-3-yl-sulfanyl)-androsta-1,4-dien-3-one]
- % Reduction in ACTH (ACTH; dose 125 μg): 5%
- % Reduction in ACTH (ACTH; dose 250 μg): 29%
- % Reduction in ACTH (ACTH; dose 500 μg): 45%
- % Inhibition (ear inflammation) (Rat Ear Oedema): 56%

Compound: CC1(C)O[C@@H]2C[C@H]3[C@@H]4C[C@H](F)C5=CC(=O)C=C[C@]5(C)[C@@]4(F)[C@@H](O)C[C@]3(C)[C@]2(S[C@H]2CCOC2=O)O1 (single isomer, unassigned) [Example 2 Isomer B, 6α,9α-Difluoro-11β-hydroxy-16α,17α-isopropylidenedioxy-17β-(2-oxo-tetrahydro-furan-3-yl-sulfanyl)-androsta-1,4-dien-3-one]
- % Inhibition (ear inflammation) (Rat Ear Oedema): 54%

Compound: CCC[C@@H]1O[C@@H]2C[C@H]3[C@@H]4C[C@H](F)C5=CC(=O)CC[C@]5(C)[C@@]4(F)[C@@H](O)C[C@]3(C)[C@]2(SC2CCOC2=O)O1 (single isomer, unassigned) [Example 3 Isomer A, 16α,17α-(R-Butylidenedioxy)-6α,9α-difluoro-11β-hydroxy-17β-(2-oxo-tetrahydro-furan-3-yl-sulfanyl)-androst-4-en-3-one]
- % Inhibition (ear inflammation) (Rat Ear Oedema): 55%

- % Reduction in ACTH (ACTH; dose 1 μg): 49%
- % Reduction in ACTH (ACTH; dose 5 μg): 84%
Compound: CC1(C)O[C@@H]2C[C@H]3[C@@H]4C[C@H](F)C5=CC(=O)C=C[C@]5(C)[C@@]4(F)[C@@H](O)C[C@]3(C)[C@]2(C(=O)CO)O1 [Fluocinolone acetonide, reference compound]
